Data set [1] deals with T1, GPR55 receptor (Homo sapiens, UniProt Q9Y2T6).
T1 construct: expressed in transfected cells
As to the kind of experiment: GPR55 agonist activity, real-time cell impedance (xCELLigence) in hGPR55-HEK293 cells. Type of data set: cell-based. The note with it: mean (95% confidence interval); for Emax: read-out: Emax (%), agonist action on GPR55. The method, then: (§1) In the present invention, the activity of the compounds of the invention on the GPR55 receptor was assessed by performing in vitro assays with real-time cell impedance measurements (xCELLigence experiments). These assays were performed on a HEK293 human embryonic kidney cell line overexpressing the recombinant GPR55 receptor in stable form (hGPR55-HEK293). The cells were seeded one day prior to carrying out the stimulation with the exemplary compounds of the present invention.
Activation of the GPR55 receptor by an agonist compound causes a cellular impedance detected by the system and compared to lysophosphatidylinositol (LPI), a reference GPR55 ligand. The effect of LPI measured at a concentration of 1 μM was set at 100%. […] Therefore, dose-response curves were determined at this time. Cell impedance values were normalized for each well, just prior to addition of the inventive compound of the invention to be evaluated.

Data set [2] has as its target T1, GPR55 receptor. Description: GPR55 antagonist activity: inhibition of LPI-mediated GPR55 stimulation (xCELLigence) in hGPR55-HEK293 cells. Type of data set: cell-based. Conditions: LPI alone or with example compound at 1 μM, mean (95% confidence interval). The protocol: as §1
The ability of the exemplary compounds of the patent to inhibit LPI-mediated GPR55 receptor stimulation has been evaluated.
Values represent the mean with a 95% confidence interval calculated with 4 independent experiments performed in duplicate. Significant differences with respect to LPI values are considered due to lack of overlap of confidence intervals.

The mark [3] stands for this setting: maximum effect relative to LPI 1 μM = 100%.

T1 sequence (Q9Y2T6 whole entry): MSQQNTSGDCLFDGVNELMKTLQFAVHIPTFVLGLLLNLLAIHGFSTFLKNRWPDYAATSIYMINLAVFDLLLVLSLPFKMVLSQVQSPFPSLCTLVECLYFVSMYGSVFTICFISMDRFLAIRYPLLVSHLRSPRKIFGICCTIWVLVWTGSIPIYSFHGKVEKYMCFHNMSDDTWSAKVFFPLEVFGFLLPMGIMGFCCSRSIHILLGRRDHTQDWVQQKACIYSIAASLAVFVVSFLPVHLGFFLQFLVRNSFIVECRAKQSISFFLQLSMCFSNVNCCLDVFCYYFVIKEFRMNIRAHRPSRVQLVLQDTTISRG

With `COc1ccc2c(c1)OC(C)(C)c1cn(CCN3CCN(C(=O)c4ccco4)CC3)nc1-2` [Example 2, 2-(2-(4-(2-furoyl)piperazinyl)ethyl)-2,4-dihydro-7-methoxy-4,4-dimethylchromeno[4,3-c]pyrazole], the Emax in data set [1] (setting [3]) was 43%. Still for that read-out and setting: the result for `COc1ccc2c(c1)OC(C)(C)c1cn(CCN3CCN(C(=O)c4ccccc4)CC3)nc1-2` [Example 4, 2-(2-(4-benzoyl-piperazinyl)ethyl)-2,4-dihydro-7-methoxy-4,4-dimethylchromeno[4,3-c]pyrazole] reads 51%. With `COc1ccc2c(c1)OC(C)(C)c1cn(CCN3CCN(C(=O)c4cccs4)CC3)nc1-2` [Example 6, 2-(2-(4-(2-thienoyl)piperazinyl)ethyl)-2,4-dihydro-7-methoxy-4,4-dimethylchromeno[4,3-c]pyrazole], the melting point is 163 to 165 °C. Further, the maximum response (Emax) in data set [1] (setting [3]) is 45%.

As for `COc1ccc2c(c1)OC(C)(C)c1cn(CCN3CCN(C(=O)COc4ccccc4)CC3)nc1-2` [Example 7, 2-(2-(4-phenoxyacetylpiperazinyl)ethyl)-2,4-dihydro-7-methoxy-4,4-dimethylchromeno[4,3-c]pyrazole], the melting point was 177 to 179 °C. Further, in data set [1] (setting [3]), the maximal response (Emax) is 52%. In turn, `COc1ccc2c(c1)OC(C)(C)c1cn(CCN3CCN(C(=O)C4CCCO4)CC3)nc1-2` (stereo not shown) [Example 8, 2-(2-(4-(2-tetrahydrofuroyl)piperazinyl)ethyl)-2,4-dihydro-7-methoxy-4,4-dimethylchromeno[4,3-c]pyrazole] returned a melting point of 158 to 160 °C. Further, the Emax in data set [1] (setting [3]) turned out to be 51%. For `COc1ccc2c(c1)OC(C)(C)c1cn(CCN3CCN(C(=O)C4CCCCC4)CC3)nc1-2` [Example 9, 2-(2-(4-cyclohexylcarbonyl-piperazinyl)ethyl)-2,4-dihydro-7-methoxy-4,4-dimethylchromeno[4,3-c]pyrazole], the melting point lay within 151 to 152 °C. Besides, the Emax in data set [1] (setting [3]) was found to be 47%. On to `COc1ccc2c(c1)OC(C)(C)c1cn(CCN3CCN(C(=O)C(C)(C)C)CC3)nc1-2` [Example 10, 2-(2-(4-pivaloyl-piperazinyl)ethyl)-2,4-dihydro-7-methoxy-4,4-dimethylchromeno[4,3-c]pyrazole], for which, in data set [1] (setting [3]), the maximum response (Emax) was found to be 49%. On the same count and under the same terms, the result for `COc1ccc2c(c1)OC(C)(C)c1cn(CNC(=O)CN3CCN(c4ccccc4OC)CC3)nc1-2` [Example 14, 2-(2-(4-(2-methoxyphenyl)piperazinyl)acetamidomethyl)-2,4-dihydro-7-methoxy-4,4-dimethylchromeno[4,3-c]pyrazole] reads 51%. Turning to “lysophosphatidylinositol [LPI, reference compound]”, the EC50 in data set [1] (hGPR55-HEK293 cells, xCELLigence, 5 minutes after addition, 4 experiments, read-out: EC50 (nM), agonist action on GPR55) was 2.82 nM; in data set [2] (hGPR55-HEK293 cells, read-out: EC50 (nM) of LPI in the presence of example compound), 1.6 nM. The “Emax (%), agonist action on GPR55” value in data set [1] (setting [3]) is reported as 100 (81-118) %. Also, the “Emax (%) of LPI in the presence of example compound” value in data set [2] (relative to LPI activity) is listed as 99 (90-108) %.

A word on the Emax: it is the maximal effect, on the per cent scale that the assay sets. The term melting point denotes the temperature of the solid-liquid transition. The term EC50 denotes the concentration that produces a half-maximal response.

The values are drawn from patent US10435412B2, “Selective modulators of the activity of the GPR55 receptor: chromenopyrazole derivatives” (Consejo Superior de Investigaciones Cientificas (CSIC), priority 2015, dated 2019).
